Experimental data: ChEMBL document CHEMBL1201862, “PubChem BioAssay data set” (2004)
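All cell lines were grown in 96-well plates and treated with compound for 48 hours. GI50 is the concentration that inhibits growth by half.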 The source made the active and inactive calls. Cut-off read from the data, not from the text of the source: active = GI50 up to about 1.1 µM and inactive = higher.

How the values were obtained:
Assay in all cases: NCI anticancer screen, dose series, 48 h
CAKI-1 = tested on: CAKI-1
CCRF-CEM = tested on: CCRF-CEM
HCC 2998 = tested on: HCC 2998
HOP-92 = tested on: HOP-92
HT-29 = tested on: HT-29
Hs-578T = tested on: Hs-578T
IGROV-1 = tested on: IGROV-1
MCF7 = tested on: MCF7
MDA-MB-435 = tested on: MDA-MB-435
Malme-3M = tested on: Malme-3M
OVCAR-4 = tested on: OVCAR-4
OVCAR-5 = tested on: OVCAR-5
OVCAR-8 = tested on: OVCAR-8
PC-3 = tested on: PC-3
RPMI-8226 = tested on: RPMI-8226
SF-295 = tested on: SF-295
SF-539 = tested on: SF-539
SK-MEL-2 = tested on: SK-MEL-2
TK-10 = tested on: TK-10
UACC-62 = tested on: UACC-62

Measured: GI50

O=C1C=C(Nc2nc(O)cc(C(=O)O)n2)c2ccccc2C1=O
inactive: CAKI-1 > 100 µM | CCRF-CEM > 100 µM | HCC 2998 > 100 µM | HOP-92 > 100 µM | HT-29 > 100 µM | Hs-578T > 100 µM | IGROV-1 > 100 µM | MCF7 > 100 µM | MDA-MB-435 37.8 µM | Malme-3M > 100 µM | OVCAR-4 > 100 µM | OVCAR-5 > 100 µM | OVCAR-8 > 100 µM | PC-3 > 100 µM | RPMI-8226 > 100 µM | SF-295 > 100 µM | SF-539 > 100 µM | SK-MEL-2 > 100 µM | TK-10 > 100 µM | UACC-62 > 100 µM

CCC1=CC2Cc3nc4cc(Cl)ccc4c(N)c3C(C1)C2 (stereo not given)
inactive: CAKI-1 2.26 µM | CCRF-CEM 3.35 µM | HCC 2998 1.51 µM | HOP-92 1.91 µM | HT-29 3.02 µM | Hs-578T 5.08 µM | IGROV-1 2.72 µM | MCF7 3.25 µM | MDA-MB-435 2.94 µM | Malme-3M 4.55 µM | OVCAR-4 3.59 µM | OVCAR-5 5.62 µM | OVCAR-8 12.8 µM | PC-3 4.47 µM | RPMI-8226 2.03 µM | SF-295 4.45 µM | SF-539 9.27 µM | SK-MEL-2 5.45 µM | TK-10 4.38 µM | UACC-62 6.04 µM

CCOC(=O)CN1CC(C2=C(O)CN(CC(=O)OCC)C2=O)=CC1=O
inactive: CAKI-1 > 100 µM | CCRF-CEM > 100 µM | HCC 2998 > 100 µM | HOP-92 > 100 µM | HT-29 > 100 µM | Hs-578T > 100 µM | IGROV-1 > 100 µM | MCF7 > 100 µM | MDA-MB-435 > 100 µM | Malme-3M > 100 µM | OVCAR-4 > 100 µM | OVCAR-5 > 100 µM | OVCAR-8 > 100 µM | PC-3 > 100 µM | RPMI-8226 > 100 µM | SF-295 > 100 µM | SF-539 > 100 µM | SK-MEL-2 > 100 µM | TK-10 > 100 µM | UACC-62 > 100 µM
